Assay results as given in patent US20230085307A1, “PYRIDAZINONE COMPOUND AND HERBICIDE” (NISSAN CHEMICAL CORPORATION, priority 2019, published 2023).

Assays:
[1] = system: late watergrass; experiment: Test Example 1: herbicidal activity, application before weed generation under submerged conditions (Table 16, symbol A); assay type: in vivo, late watergrass (Echinochloa oryzicola); details: amount of applied herbicide 320 g/ha
Method in brief: (§1)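 Submerged Wagner pots (alluvial soil, 4 cm water) sown with weed seeds and planted with 2.5-leaf rice seedlings; emulsifiable concentrate diluted in water applied to water surface on sowing day. Held in greenhouse at 25-30 °C; injury scored 0-5 by herbicidal rate after three weeks.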

[2] = system: lambsquarters; experiment: Test Example 4: herbicidal effect by soil treatment (Table 19, symbol O); assay type: in vivo, lambsquarters (Chenopodium album); details: amount of applied herbicide 320 g/ha
Method in brief: (§2)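 Pre-emergence style soil spray: seeds under ~1.5 cm sterilized diluvial soil received a uniform coat of emulsion diluted to the predetermined herbicide amount. Greenhouse 25–30° C; readout at week three on previously defined criteria.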

[3] = system: persian speedwell; experiment: Test Example 4: herbicidal effect by soil treatment (Table 19, symbol R); assay type: in vivo, Persian speedwell (Veronica persica); details: amount of applied herbicide 320 g/ha
Method in brief: as §2

[4] = system: Italian ryegrass; experiment: Test Example 4: herbicidal effect by soil treatment (Table 19, symbol K); assay type: in vivo, Italian ryegrass (Lolium multiflorum); details: amount of applied herbicide 320 g/ha
Method in brief: as §2

[5] = system: green foxtail; experiment: Test Example 5: herbicidal effect by foliage application, plastic box (Table 20, symbol G); assay type: in vivo, green foxtail (Setaria viridis); details: 320 g/ha; for G: green foxtail, herbicidal effect grade: three weeks after application
Method in brief: (§3)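 Plants were sown into sterilized diluvial soil under about 1.5 cm cover and kept in a greenhouse at 25° C. to 30° C. Fourteen days on, foliage received an even spray of the diluted emulsion. Herbicidal or crop effect was judged three weeks afterwards.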

[6] = system: redroot pigweed; experiment: Test Example 5: herbicidal effect by foliage application, plastic box (Table 20, symbol N); assay type: in vivo, redroot pigweed (Amaranthus retroflexus); details: 320 g/ha; for N: redroot pigweed, herbicidal effect grade: three weeks after application
Method in brief: as §3

[7] = system: Japanese bulrush; experiment: Test Example 1: herbicidal activity, application before weed generation under submerged conditions (Table 16, symbol B); assay type: in vivo, Japanese bulrush (Schoenoplectus juncoides); details: amount of applied herbicide 320 g/ha
Method in brief: as §1

[8] = system: windgrass; experiment: Test Example 5: herbicidal effect by foliage application, plastic box (Table 20, symbol L); assay type: in vivo, windgrass (Apera spica-venti); details: 320 g/ha; for L: windgrass, herbicidal effect grade: three weeks after application
Method in brief: as §3

[9] = system: late watergrass; experiment: Test Example 2: herbicidal activity, application during weed generation under submerged conditions (Table 17, symbol A); assay type: in vivo, late watergrass (Echinochloa oryzicola); details: for herbicidal effect rating, A: late watergrass: AAH 320 g/ha, application during weed generation, submerged conditions
Method in brief: (§4)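 Wagner pot, alluvial soil, 4 cm flood; mixed sowing of all species; greenhouse 25° C.–30° C. Emulsifiable formulation, water-diluted to predetermined dose, applied to paddy water at 1–2 leaf stage. Effect rated at 3 wk using the earlier test's scoring criteria.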

[10] = system: oval-leafed pondweed; experiment: Test Example 2: herbicidal activity, application during weed generation under submerged conditions (Table 17, symbol C); assay type: in vivo, oval-leafed pondweed (Monochoria vaginalis); details: for herbicidal effect rating, C: oval-leafed pondweed: AAH 320 g/ha, application during weed generation, submerged conditions
Method in brief: as §4

[11] = system: barnyard grass; experiment: Test Example 3: herbicidal effect by foliage application, Wagner pot (Table 18, symbol H); assay type: in vivo, barnyard grass (Echinochloa crus-galli); details: for herbicidal effect on barnyard grass (H): 320 g/ha
Method in brief: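 Plants were sown in alluvial soil held under 0.1–0.5 cm standing water and grown 14 days in a greenhouse at 25–30 °C. An emulsifiable formulation, water-diluted to the set dose, was then sprayed onto the foliage, and effects were scored three weeks later using previously defined criteria.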

[12] = system: windgrass; experiment: Test Example 4: herbicidal effect by soil treatment (Table 19, symbol L); assay type: in vivo, windgrass (Apera spica-venti); details: amount of applied herbicide 320 g/ha
Method in brief: as §2

[13] = system: persian speedwell; experiment: Test Example 5: herbicidal effect by foliage application, plastic box (Table 20, symbol R); assay type: in vivo, Persian speedwell (Veronica persica); details: 320 g/ha; for R: persian speedwell, herbicidal effect grade: three weeks after application
Method in brief: as §3

[14] = system: velvetleaf; experiment: Test Example 4: herbicidal effect by soil treatment (Table 19, symbol M); assay type: in vivo, velvetleaf (Abutilon theophrasti); details: amount of applied herbicide 320 g/ha
Method in brief: as §2

[15] = system: chickweed; experiment: Test Example 4: herbicidal effect by soil treatment (Table 19, symbol P); assay type: in vivo, common chickweed (Stellaria media); details: amount of applied herbicide 320 g/ha
Method in brief: as §2

[16] = system: barnyard grass; experiment: Test Example 4: herbicidal effect by soil treatment (Table 19, symbol H); assay type: in vivo, barnyard grass (Echinochloa crus-galli); details: amount of applied herbicide 320 g/ha
Method in brief: as §2

[17] = system: chickweed; experiment: Test Example 5: herbicidal effect by foliage application, plastic box (Table 20, symbol P); assay type: in vivo, common chickweed (Stellaria media); details: 320 g/ha; for P: chickweed, herbicidal effect grade: three weeks after application
Method in brief: as §3

[18] = foliage application after 14-day growth, evaluated three weeks after application
[19] = foliage application, evaluated 3 weeks after application
[20] = application during weed generation under submerged conditions, amount of applied herbicide 320 g/ha

SMILES | Herbicidal effect, A: late watergrass [1] | Herbicidal effect, B: Japanese bulrush [7] | herbicidal effect rating, A: late watergrass [9] | herbicidal effect rating, C: oval-leafed pondweed [10] | herbicidal effect on barnyard grass (H) [11] | O: lambsquarters, herbicidal effect grade [2] | R: persian speedwell, herbicidal effect grade [3] | K: Italian ryegrass, herbicidal effect grade [4] | L: windgrass, herbicidal effect grade [12] | M: velvetleaf, herbicidal effect grade [14] | P: chickweed, herbicidal effect grade [15] | H: barnyard grass, herbicidal effect grade [16] | G: green foxtail, herbicidal effect grade ([5]; foliage application) | N: redroot pigweed, herbicidal effect grade ([6]; foliage application) | L: windgrass, herbicidal effect grade ([8]; foliage application) | R: persian speedwell, herbicidal effect grade ([13]; foliage application) | P: chickweed, herbicidal effect grade ([17]; foliage application) | further results
CCCC(=O)Oc1c(C)nn(C)c(=O)c1-c1c(-c2ccccc2OCC)sc2c(Cl)cccc12 [4-026] | 5 (Herbicidal rate of 90% or more (almost completely withered)) | 3 (Herbicidal rate of 40% or more and less than 70%) | 3 (Herbicidal rate of 40% or more and less than 70%) | 2 (Herbicidal rate of 20% or more and less than 40%) | 5 (Herbicidal rate of 90% or more (almost completely withered)) |  |  |  |  |  |  |  |  |  |  |  |  | Herbicidal effect by soil treatment, O: lambsquarters [2]: 0 (Herbicidal rate of 5% or less (almost no effect)); Herbicidal effect by soil treatment, R: persian speedwell [3]: 2 (Herbicidal rate of 20% or more and less than 40%); Herbicidal effect by soil treatment, K: Italian ryegrass [4]: 0 (Herbicidal rate of 5% or less (almost no effect)); herbicidal effect on G: green foxtail (evaluation grade 0-5) [5, 18]: 5 (Herbicidal rate of 90% or more (almost completely withered)); herbicidal effect on N: redroot pigweed (evaluation grade 0-5) [6, 18]: 5 (Herbicidal rate of 90% or more (almost completely withered)); herbicidal effect on L: windgrass (evaluation grade 0-5) [8, 18]: 5 (Herbicidal rate of 90% or more (almost completely withered)); Herbicidal effect by soil treatment, L: windgrass [12]: 0 (Herbicidal rate of 5% or less (almost no effect)); herbicidal effect on R: persian speedwell (evaluation grade 0-5) [13, 18]: 4 (Herbicidal rate of 70% or more and less than 90%); Herbicidal effect by soil treatment, M: velvetleaf [14]: 0 (Herbicidal rate of 5% or less (almost no effect)); Herbicidal effect by soil treatment, P: chickweed [15]: 1 (Herbicidal rate of 5% or more and less than 20%); Herbicidal effect by soil treatment, H: barnyard grass [16]: 3 (Herbicidal rate of 40% or more and less than 70%); herbicidal effect on P: chickweed (evaluation grade 0-5) [17, 18]: 5 (Herbicidal rate of 90% or more (almost completely withered))
Cc1ccc2oc(-c3ccc(OCC(C)C)cc3)c(-c3c(O)c(C)nn(C)c3=O)c2c1 [9-051] | 5 (Herbicidal rate of 90% or more (almost completely withered)) | 5 (Herbicidal rate of 90% or more (almost completely withered)) |  |  |  | 5 (Herbicidal rate of 90% or more (almost completely withered)) | 5 (Herbicidal rate of 90% or more (almost completely withered)) | 5 (Herbicidal rate of 90% or more (almost completely withered)) | 4 (Herbicidal rate of 70% or more and less than 90%) | 3 (Herbicidal rate of 40% or more and less than 70%) | 5 (Herbicidal rate of 90% or more (almost completely withered)) | 4 (Herbicidal rate of 70% or more and less than 90%) |  |  |  |  |  | G (green foxtail) herbicidal effect grade [5, 19]: 5 (Herbicidal rate of 90% or more (almost completely withered)); N (redroot pigweed) herbicidal effect grade [6, 19]: 5 (Herbicidal rate of 90% or more (almost completely withered)); L (windgrass) herbicidal effect grade [8, 19]: 2 (Herbicidal rate of 20% or more and less than 40%); herbicidal effect grade, A: late watergrass [9, 20]: 5 (Herbicidal rate of 90% or more (almost completely withered)); herbicidal effect grade, C: oval-leafed pondweed [10, 20]: 5 (Herbicidal rate of 90% or more (almost completely withered)); Herbicidal effect on H (barnyard grass), foliage application ([11]; amount of applied herbicide 320 g/ha): 5 (Herbicidal rate of 90% or more (almost completely withered)); R (persian speedwell) herbicidal effect grade [13, 19]: 5 (Herbicidal rate of 90% or more (almost completely withered)); P (chickweed) herbicidal effect grade [17, 19]: 5 (Herbicidal rate of 90% or more (almost completely withered))
CCCCCOc1ccc2c(-c3c(O)c(C)nn(C)c3=O)c(-c3ccccc3OC)sc2c1 [3-108] | 3 (Herbicidal rate of 40% or more and less than 70%) | 3 (Herbicidal rate of 40% or more and less than 70%) | 2 (Herbicidal rate of 20% or more and less than 40%) | 0 (Herbicidal rate of 5% or less (almost no effect)) | 3 (Herbicidal rate of 40% or more and less than 70%) | 4 (Herbicidal rate of 70% or more and less than 90%) | 0 (Herbicidal rate of 5% or less (almost no effect)) | 0 (Herbicidal rate of 5% or less (almost no effect)) | 0 (Herbicidal rate of 5% or less (almost no effect)) | 0 (Herbicidal rate of 5% or less (almost no effect)) | 0 (Herbicidal rate of 5% or less (almost no effect)) | 0 (Herbicidal rate of 5% or less (almost no effect)) | 3 (Herbicidal rate of 40% or more and less than 70%) | 5 (Herbicidal rate of 90% or more (almost completely withered)) | 0 (Herbicidal rate of 5% or less (almost no effect)) | 4 (Herbicidal rate of 70% or more and less than 90%) | 3 (Herbicidal rate of 40% or more and less than 70%) | 
COc1ccc2c(-c3c(O)c(C)nn(C)c3=O)c(-c3ccc(F)cc3OC)sc2c1 [3-076] | 4 (Herbicidal rate of 70% or more and less than 90%) | 5 (Herbicidal rate of 90% or more (almost completely withered)) | 3 (Herbicidal rate of 40% or more and less than 70%) | 4 (Herbicidal rate of 70% or more and less than 90%) | 5 (Herbicidal rate of 90% or more (almost completely withered)) | 4 (Herbicidal rate of 70% or more and less than 90%) | 5 (Herbicidal rate of 90% or more (almost completely withered)) | 4 (Herbicidal rate of 70% or more and less than 90%) | 5 (Herbicidal rate of 90% or more (almost completely withered)) | 0 (Herbicidal rate of 5% or less (almost no effect)) | 2 (Herbicidal rate of 20% or more and less than 40%) | 3 (Herbicidal rate of 40% or more and less than 70%) | 5 (Herbicidal rate of 90% or more (almost completely withered)) | 5 (Herbicidal rate of 90% or more (almost completely withered)) | 5 (Herbicidal rate of 90% or more (almost completely withered)) | 4 (Herbicidal rate of 70% or more and less than 90%) | 5 (Herbicidal rate of 90% or more (almost completely withered)) | 
